Reference: PubChem BioAssay AID1963970 (Molecular Pharmacology Branch, DTP, NCI, 2024)

System: 931267-113-T-J1-PDC multicell spheroid viability
Assay: Anticancer human tumor 931267-113-T-J1-PDC patient-derived colon adenocarcinoma cell line growth inhibition [PI3K]
Details: for IC50: curve of first compound; for viability, T/C: stronger effect = lower value
Summary of the method: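 Stroma-containing spheroids: tumor line, pooled-donor HUVEC, hMSC. Treatments: targeted agents with PI3K inhibitors. Dosing: clinically relevant, half-log spacing, 10 microM ceiling without known Cmax. Read-out: cell viability.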

[1] = second compound 0.0316 µM, first compound 0.0316 µM
[2] = second compound 0.0316 µM, first compound 0.1 µM
[3] = second compound 0.0316 µM, first compound 0.316 µM
[4] = second compound 0.0316 µM, first compound 1 µM
[5] = second compound 0.0316 µM, first compound 3.16 µM
[6] = second compound 0.0316 µM, first compound 10 µM
[7] = second compound 0.1 µM, first compound 0.0316 µM
[8] = second compound 0.1 µM, first compound 0.1 µM
[9] = second compound 0.1 µM, first compound 0.316 µM
[10] = second compound 0.1 µM, first compound 1 µM
[11] = second compound 0.1 µM, first compound 3.16 µM
[12] = second compound 0.1 µM, first compound 10 µM
[13] = second compound 0.316 µM, first compound 0.0316 µM
[14] = second compound 0.316 µM, first compound 0.1 µM
[15] = second compound 0.316 µM, first compound 0.316 µM
[16] = second compound 0.316 µM, first compound 1 µM
[17] = second compound 0.316 µM, first compound 3.16 µM
[18] = second compound 0.316 µM, first compound 10 µM
[19] = second compound 1 µM, first compound 0.0316 µM
[20] = second compound 1 µM, first compound 0.1 µM
[21] = second compound 1 µM, first compound 0.316 µM
[22] = second compound 1 µM, first compound 1 µM
[23] = second compound 1 µM, first compound 3.16 µM
[24] = second compound 1 µM, first compound 10 µM
[25] = second compound 3.16 µM, first compound 0.0316 µM
[26] = second compound 3.16 µM, first compound 0.1 µM
[27] = second compound 3.16 µM, first compound 0.316 µM
[28] = second compound 3.16 µM, first compound 1 µM
[29] = second compound 3.16 µM, first compound 3.16 µM
[30] = second compound 3.16 µM, first compound 10 µM
[31] = second compound 10 µM, first compound 0.0316 µM
[32] = second compound 10 µM, first compound 0.1 µM
[33] = second compound 10 µM, first compound 0.316 µM
[34] = second compound 10 µM, first compound 1 µM
[35] = second compound 10 µM, first compound 3.16 µM
[36] = second compound 10 µM, first compound 10 µM
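Also: viability read 7 days after compound addition.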

## CC1(C)CCC(CN2CCN(c3ccc(C(=O)NS(=O)(=O)c4ccc(NCC5CCOCC5)c([N+](=O)[O-])c4)c(Oc4cnc5[nH]ccc5c4)c3)CC2)=C(c2ccc(Cl)cc2)C1 + Cc1nc(NC(=O)N2CCCC2C(N)=O)sc1-c1ccnc(C(C)(C)C(F)(F)F)c1
Second compound 0.0316 µM
  IC50: 6.06 µM
Second compound 0.1 µM
  IC50: 5.9 µM
Second compound 0.316 µM
  IC50: 5.31 µM
Second compound 1 µM
  IC50: 4.73 µM
Second compound 3.16 µM
  IC50: 4.44 µM
Second compound 10 µM
  IC50: 3.48 µM
[1]
  viability, T/C: 105%
[2]
  viability, T/C: 98.3%
[3]
  viability, T/C: 98%
[4]
  viability, T/C: 108%
[5]
  viability, T/C: 90.3%
[6]
  viability, T/C: 19%
[7]
  viability, T/C: 95.4%
[8]
  viability, T/C: 94%
[9]
  viability, T/C: 92%
[10]
  viability, T/C: 102%
[11]
  viability, T/C: 92.6%
[12]
  viability, T/C: 14%
[13]
  viability, T/C: 91.7%
[14]
  viability, T/C: 101%
[15]
  viability, T/C: 98.5%
[16]
  viability, T/C: 84.7%
[17]
  viability, T/C: 80.2%
[18]
  viability, T/C: 15.7%
[19]
  viability, T/C: 91.7%
[20]
  viability, T/C: 78.4%
[21]
  viability, T/C: 79.4%
[22]
  viability, T/C: 88.1%
[23]
  viability, T/C: 72.5%
[24]
  viability, T/C: 8.3%
[25]
  viability, T/C: 73.2%
[26]
  viability, T/C: 72.8%
[27]
  viability, T/C: 72.5%
[28]
  viability, T/C: 70.6%
[29]
  viability, T/C: 67.6%
[30]
  viability, T/C: 8.18%
[31]
  viability, T/C: 57.1%
[32]
  viability, T/C: 57.9%
[33]
  viability, T/C: 50.3%
[34]
  viability, T/C: 58.1%
[35]
  viability, T/C: 53.7%
[36]
  viability, T/C: 7.58%

## C[C@@H](NC(=O)c1ncnc(N)c1Cl)c1ncc(C(=O)Nc2cc(C(F)(F)F)c(Cl)cn2)s1 + Cc1nc(NC(=O)N2CCCC2C(N)=O)sc1-c1ccnc(C(C)(C)C(F)(F)F)c1
Second compound 0.0316 µM
  IC50: > 10 µM
Second compound 0.1 µM
  IC50: > 10 µM
Second compound 0.316 µM
  IC50: > 10 µM
Second compound 1 µM
  IC50: 9.87 µM
Second compound 3.16 µM
  IC50: 5.35 µM
Second compound 10 µM
  IC50: 1.39 µM
[1]
  viability, T/C: 110%
[2]
  viability, T/C: 106%
[3]
  viability, T/C: 110%
[4]
  viability, T/C: 116%
[5]
  viability, T/C: 97.5%
[6]
  viability, T/C: 82.8%
[7]
  viability, T/C: 103%
[8]
  viability, T/C: 107%
[9]
  viability, T/C: 113%
[10]
  viability, T/C: 111%
[11]
  viability, T/C: 88.7%
[12]
  viability, T/C: 72.5%
[13]
  viability, T/C: 106%
[14]
  viability, T/C: 96.4%
[15]
  viability, T/C: 106%
[16]
  viability, T/C: 95.7%
[17]
  viability, T/C: 74.6%
[18]
  viability, T/C: 57.5%
[19]
  viability, T/C: 93.7%
[20]
  viability, T/C: 93.2%
[21]
  viability, T/C: 99.2%
[22]
  viability, T/C: 81.1%
[23]
  viability, T/C: 71.2%
[24]
  viability, T/C: 49.5%
[25]
  viability, T/C: 83.6%
[26]
  viability, T/C: 91.8%
[27]
  viability, T/C: 83.3%
[28]
  viability, T/C: 79.8%
[29]
  viability, T/C: 62.6%
[30]
  viability, T/C: 35%
[31]
  viability, T/C: 72.2%
[32]
  viability, T/C: 63.3%
[33]
  viability, T/C: 63.8%
[34]
  viability, T/C: 52%
[35]
  viability, T/C: 41.9%
[36]
  viability, T/C: 16.9%

## Cn1ncnc1[C@H]1c2n[nH]c(=O)c3cc(F)cc(c23)N[C@@H]1c1ccc(F)cc1 + Cc1nc(NC(=O)N2CCCC2C(N)=O)sc1-c1ccnc(C(C)(C)C(F)(F)F)c1
Second compound 0.0316 µM
  IC50: > 0.1 µM
Second compound 0.1 µM
  IC50: > 0.1 µM
Second compound 0.316 µM
  IC50: > 0.1 µM
Second compound 1 µM
  IC50: > 0.1 µM
Second compound 3.16 µM
  IC50: > 0.1 µM
Second compound 10 µM
  IC50: > 0.1 µM
Second compound 0.0316 µM, first compound 0.000316 µM
  viability, T/C: 107%
Second compound 0.0316 µM, first compound 0.001 µM
  viability, T/C: 98.2%
Second compound 0.0316 µM, first compound 0.00316 µM
  viability, T/C: 84.2%
Second compound 0.0316 µM, first compound 0.01 µM
  viability, T/C: 94.1%
[1]
  viability, T/C: 91%
[2]
  viability, T/C: 97.5%
Second compound 0.1 µM, first compound 0.000316 µM
  viability, T/C: 113%
Second compound 0.1 µM, first compound 0.001 µM
  viability, T/C: 94.8%
Second compound 0.1 µM, first compound 0.00316 µM
  viability, T/C: 107%
Second compound 0.1 µM, first compound 0.01 µM
  viability, T/C: 98.8%
[7]
  viability, T/C: 90.2%
[8]
  viability, T/C: 75.1%
Second compound 0.316 µM, first compound 0.000316 µM
  viability, T/C: 93.9%
Second compound 0.316 µM, first compound 0.001 µM
  viability, T/C: 89.5%
Second compound 0.316 µM, first compound 0.00316 µM
  viability, T/C: 89.5%
Second compound 0.316 µM, first compound 0.01 µM
  viability, T/C: 95%
[13]
  viability, T/C: 82%
[14]
  viability, T/C: 89.8%
Second compound 1 µM, first compound 0.000316 µM
  viability, T/C: 74.5%
Second compound 1 µM, first compound 0.001 µM
  viability, T/C: 73.7%
Second compound 1 µM, first compound 0.00316 µM
  viability, T/C: 86.3%
Second compound 1 µM, first compound 0.01 µM
  viability, T/C: 78.5%
[19]
  viability, T/C: 79.7%
[20]
  viability, T/C: 72.1%
Second compound 3.16 µM, first compound 0.000316 µM
  viability, T/C: 78.9%
Second compound 3.16 µM, first compound 0.001 µM
  viability, T/C: 68.6%
Second compound 3.16 µM, first compound 0.00316 µM
  viability, T/C: 61.7%
Second compound 3.16 µM, first compound 0.01 µM
  viability, T/C: 63.8%
[25]
  viability, T/C: 70.7%
[26]
  viability, T/C: 64.6%
Second compound 10 µM, first compound 0.000316 µM
  viability, T/C: 57.7%
Second compound 10 µM, first compound 0.001 µM
  viability, T/C: 55.2%
Second compound 10 µM, first compound 0.00316 µM
  viability, T/C: 54.2%
Second compound 10 µM, first compound 0.01 µM
  viability, T/C: 51.8%
[31]
  viability, T/C: 59.2%
[32]
  viability, T/C: 52.8%
